Source: patent EP4707279A1, “SUBSTITUTED TRICYCLIC HETEROCYCLIC COMPOUND AS PHARMACEUTICAL FOR TREATMENT OR PREVENTION OF COVID-19” (priority 2023, dated 2024)

Key:
[1] = tested on: SARS-CoV-2; assay: CPE inhibition assay, anti-SARS-CoV-2 virus activity in vitro (Test Example 4); format: cell-based
[2] = tested on: Caco-2 cells; conditions: 48 hours, CellTiter-Glo
Protocol: (§1) To evaluate the cytotoxicity of the selected compound, CellTiter-Glo (registered trademark) Luminescent Cell Viability Assay (Promega Corporation, Madison, WI, USA) was conducted. Briefly, VeroE6-TMPRSS2 or Caco-2 cells (4×10^4 cells/well) were incubated with different concentrations of the compound for 48 hours, and then, the number of cells was measured as the amount of ATP in the cell lysate supernatant using CellTiter-Glo (registered trademark) Luminescent Cell Viability Assay method. The CC50 of the compound was calculated by GraphPad. The repeated test was conducted three times.
(§2) VeroE6 (ATCC CRL-1586 (registered trademark)) and Vero E6-TMPRSS2 (BPS Bioscience Catalog #78081) as well as Caco-2 cells (ATCC HTB-37 (registered trademark)) were purchased as commercial products and they were passaged in Dulbecco's Modified Eagle Medium (DMEM, Gibco, CA, USA) supplemented with 10% heat-inactivated fetal bovine serum (FBS, Gibco, CA, USA), 50 U/mL penicillin, and 50 µg/mL streptomycin. All antibiotics and supplements were purchased from Thermo Fisher Scientific, Inc. (Waltham, MA).

[3] = tested on: VeroE6-TMPRSS2 cells; conditions: 48 hours, CellTiter-Glo
Protocol: as §1, §2

[4] = tested on: SARS-CoV-2; assay: microbe, parasite or virus in culture; format: cell-based; conditions: Severe acute respiratory syndrome coronavirus 2, VeroE6-TMPRSS2 cells, read-out: inhibition of CPE
[5] = CPE inhibition at 10 µM, VeroE6-TMPRSS2 cells, MOI 0.01, third day post infection, average of three tests

Compound	Anti SARS-CoV-2 activity [1, 5]	further results
O=C(NCc1ccc2ccccc2c1)[C@@H]1CC[C@H]2N1C(=O)[C@@H](Cc1ccccc1)N1C(=O)N(Cc3ccccc3)C(=O)N(Cc3ccccc3)[C@]21O [Compound 1D, (6R,9S,11aR,11bR)-1,3,6-Tribenzyl-11b-hydroxy-N-(naphthalen-2-ylmethyl)-2,4,7-trioxo-2H-pyrrolo[2',1':3,4] pyridazine[1,2-a][1,3,5]triazine-9-carboxamide]	–	Anti SARS-CoV-2 activity ([1]; 10 µM): A (a CPE inhibition effect of 5% or more); CC50 [2]: > 400 µM; CC50 [3]: 145 µM
CCC(CC)COC(=O)[C@H](C)N[P@](=O)(OC[C@H]1O[C@@](C#N)(c2ccc3c(N)ncnn23)[C@H](O)[C@@H]1O)Oc1ccccc1 [Remdesivir]	–	inhibition at 10 µM [4]: ≥ 90%
Ethyl (6R)-1,3,6-tribenzyl-11b-hydroxy-2,4,7-trioxodecahydro-2H-pyrrolo[2',1':3,4] pyridazino[1,2-a] [1,3,5]triazine-9-carboxylate [Compound 22A]	B (a CPE inhibition effect of less than 5% but 1% or more)	–
Ethyl (6R,9S,11aR)-11b-hydroxy-6-isopropyl-2.4,7-trioxo-1,3-bis(thiophen-2-ylmethyl)decahydro-2H-pyrrolo[2',1':3,4] pyrazino[1,2-a][1,3,5] triazine-9-carboxylate [Compound 27A]	A (a CPE inhibition effect of 5% or more)	–
Ethyl (6R,9S,11aR,11bR)-1,3-dibenzyl-11b-hydroxy-6-(4-methoxybenzyl)-2,4.7-trioxodecahydro-2H-pyrrolo [2',1':3,4]pyrazino[1,2-a][1,3,5] triazine-9-carboxylate [Compound 6A]	C (less than 1%)	–
Ethyl (6R,9S,11aR,11bR)-1,3-dibenzyl-11b-hydroxy-6-methyl-2,4,7-trioxodecahydro-2H-pyrrolo[2',1':3,4]pyrazino[1,2-a] [1.3.5]triazine-9-carboxylate [Compound 2A]	C (less than 1%)	–
Ethyl (6R,9S,11aR,11bR)-1.3 dibenzyl 11b-hydroxy 6 isobutyl-2.4.7 trioxodecahydro-2H pyrrolo[2',1':3,4] pyrazino[1.2 a][1.3.5] triazine 9 carboxylate [Compound 30A]	A (a CPE inhibition effect of 5% or more)	–
Ethyl (6R.9S.11aR.11b R) 6 benzyl 11b-hydroxy 2,4,7 trioxo-1.3 bis(thiophen 2 ylm ethyl)decahydro-2H-pyrrolo[2',1':3,4] pyridazine[1,2-a] [1,3,5]triazine 9 carboxylate [Compound 18A]	A (a CPE inhibition effect of 5% or more)	–
Ethyl (6S,9R,11aS)-6-benzyl-11b-hydroxy-2,4.7-trioxo-1,3-bis(thiophen-2-ylmethyl) decahydro-2H-pyrrolo[2',1':3,4] pyrazino[1,2-a][1,3,5] triazine-9-carboxylate [Compound 23A]	A (a CPE inhibition effect of 5% or more)	–
Ethyl (6S,9R,11aS,11bS)-1,3,6-tribenzyl-11b-hydroxy-2,4.7-trioxodecahydro-2H-pyrrolo [2',1':3,4]pyrazino[1,2-a][1,3,5] triazine-9-carboxylate [Compound 4A]	C (less than 1%)	–
